Key:
[1] = target: T1, von Hippel-Lindau disease tumor suppressor/Androgen receptor (Homo sapiens, UniProt P10275+P40337); assay: Protac activity at VHL/AR in AR-positive human LNCaP cells assessed as induction of androgen receptor degradation at 0.01 uM incubated for 6 hrs by Western blot analysis (reference value: 0%); type: cell-based
[2] = target: T1, von Hippel-Lindau disease tumor suppressor/Androgen receptor; assay: Protac activity at VHL/AR in AR-positive human LNCaP cells assessed as induction of androgen receptor degradation at 0.1 uM incubated for 6 hrs by Western blot analysis (reference value: 0%); type: cell-based
CWR22R = assay: Cytotoxicity against AR-positive human 22Rv1 cells assessed as inhibition of cell growth incubated for 7 days in regular culture medium by WST-8 assay; type: functional, cell-based; details: 22Rv1, 168 h
VCaP = assay: Cytotoxicity against AR-positive human VCaP cells assessed as inhibition of cell growth incubated for 7 days in presence of AR agonist, R1881 in charcoal stripped medium by WST-8 assay; type: functional, cell-based; details: 168 h
LNCaP = assay: Cytotoxicity against AR-positive human LNCaP cells assessed as inhibition of cell growth incubated for 7 days in presence of AR agonist, R1881 in charcoal stripped medium by WST-8 assay; type: functional, cell-based; details: 168 h

T1 sequence (P10275 whole entry, looked up): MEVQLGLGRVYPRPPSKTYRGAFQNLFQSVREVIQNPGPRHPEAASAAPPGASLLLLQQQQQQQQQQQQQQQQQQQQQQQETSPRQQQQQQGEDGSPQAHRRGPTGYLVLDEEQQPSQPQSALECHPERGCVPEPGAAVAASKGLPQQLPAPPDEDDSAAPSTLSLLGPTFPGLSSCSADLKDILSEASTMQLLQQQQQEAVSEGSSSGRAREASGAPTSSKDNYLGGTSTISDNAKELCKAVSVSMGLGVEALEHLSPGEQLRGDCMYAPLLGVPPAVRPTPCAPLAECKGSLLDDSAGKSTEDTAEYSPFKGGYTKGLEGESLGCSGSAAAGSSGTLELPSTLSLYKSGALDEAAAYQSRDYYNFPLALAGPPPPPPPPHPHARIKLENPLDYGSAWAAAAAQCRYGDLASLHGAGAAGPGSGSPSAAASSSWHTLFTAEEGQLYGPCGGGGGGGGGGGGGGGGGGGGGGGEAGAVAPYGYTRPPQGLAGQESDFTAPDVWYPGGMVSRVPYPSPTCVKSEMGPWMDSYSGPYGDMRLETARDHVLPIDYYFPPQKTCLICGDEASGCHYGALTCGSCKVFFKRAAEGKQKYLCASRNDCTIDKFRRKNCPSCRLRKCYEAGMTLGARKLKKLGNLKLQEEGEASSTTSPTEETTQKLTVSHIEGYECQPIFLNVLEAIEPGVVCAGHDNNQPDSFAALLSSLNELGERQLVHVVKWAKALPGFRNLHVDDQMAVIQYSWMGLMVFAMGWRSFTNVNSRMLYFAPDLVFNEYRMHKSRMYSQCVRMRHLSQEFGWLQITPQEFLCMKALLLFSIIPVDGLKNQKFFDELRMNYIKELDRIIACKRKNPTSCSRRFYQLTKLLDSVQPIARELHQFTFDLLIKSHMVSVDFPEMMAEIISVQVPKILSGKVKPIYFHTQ
T1 sequence (P40337 whole entry, looked up): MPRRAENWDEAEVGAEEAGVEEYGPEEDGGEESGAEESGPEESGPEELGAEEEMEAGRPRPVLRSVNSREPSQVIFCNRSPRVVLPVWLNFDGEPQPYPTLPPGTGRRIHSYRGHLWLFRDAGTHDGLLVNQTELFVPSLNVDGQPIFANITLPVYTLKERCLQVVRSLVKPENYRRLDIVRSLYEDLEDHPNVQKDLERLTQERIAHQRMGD

With `Cc1ncsc1-c1ccc(CNC(=O)[C@@H]2C[C@@H](O)CN2C(=O)[C@@H](NC(=O)CCCCCCCCCCNC(=O)c2ccc(N3C(=S)N(c4ccc(C#N)c(C(F)(F)F)c4)C(=O)C3(C)C)cc2F)C(C)(C)C)cc1` the Activity [1] was 11% and the Activity [2] was 48%.
`CC(=O)N[C@H](C(=O)N1C[C@H](O)C[C@H]1C(=O)N[C@@H](CC(=O)N1CCC(N2CCC(C#Cc3ccc(C(=O)N[C@H]4C(C)(C)[C@H](Oc5ccc(C#N)c(Cl)c5)C4(C)C)cc3)CC2)CC1)c1ccc(-c2scnc2C)cc1)C(C)(C)C` showed an Activity [1] of 39% and an Activity [2] of 77%.
Work on `CC1(C)[C@H](NC(=O)c2cnn(CCO)c2)C(C)(C)[C@H]1Oc1ccc(C#N)c(Cl)c1` yielded an IC50 (CWR22R) of over 10000 nM, an IC50 (VCaP) of 148 nM and an IC50 (LNCaP) of 48 nM.
With `Cc1ncsc1-c1ccc(CNC(=O)[C@@H]2C[C@@H](O)CN2C(=O)[C@@H](NC(=O)CCCCCNC(=O)c2ccc(N3C(=S)N(c4ccc(C#N)c(C(F)(F)F)c4)C(=O)C3(C)C)cc2F)C(C)(C)C)cc1` the Activity [2] was 11%.
Work on `Cc1ncsc1-c1ccc(CNC(=O)[C@@H]2C[C@@H](O)CN2C(=O)[C@@H](NC(=O)CCCCCCCCNC(=O)c2ccc(N3C(=S)N(c4ccc(C#N)c(C(F)(F)F)c4)C(=O)C3(C)C)cc2F)C(C)(C)C)cc1` yielded an Activity [1] of 15% and an Activity [2] of 66%.
In the case of `Cc1cc([C@H](C(=O)N2C[C@H](O)C[C@H]2C(=O)N[C@@H](CC(=O)N2CCC(N3CCC(C#Cc4ccc(Cc5c(C)nn(-c6ccc(C#N)c(Cl)c6)c5C)cc4)CC3)CC2)c2ccc(-c3scnc3C)cc2)C(C)C)on1`, the Activity [2] is reported as 65%.
`Cc1ncsc1-c1ccc(CNC(=O)[C@@H]2C[C@@H](O)CN2C(=O)[C@@H](NC(=O)CCCCNC(=O)c2ccc(N3C(=S)N(c4ccc(C#N)c(C(F)(F)F)c4)C(=O)C3(C)C)cc2F)C(C)(C)C)cc1` was tested, and the Activity [2] was 16%.
`Cc1ncsc1-c1ccc(CNC(=O)[C@@H]2C[C@@H](O)CN2C(=O)[C@@H](NC(=O)CCCCCCCNC(=O)c2ccc(N3C(=S)N(c4ccc(C#N)c(C(F)(F)F)c4)C(=O)C3(C)C)cc2F)C(C)(C)C)cc1` gave an Activity [1] of 8% and an Activity [2] of 29%.
For `Cc1ncsc1-c1ccc(CNC(=O)[C@@H]2C[C@@H](O)CN2C(=O)[C@@H](NC(=O)CCCCCCNC(=O)c2ccc(N3C(=S)N(c4ccc(C#N)c(C(F)(F)F)c4)C(=O)C3(C)C)cc2F)C(C)(C)C)cc1`, the Activity [2] was 54%.
Compound `Cc1cc([C@H](C(=O)N2C[C@H](O)C[C@H]2C(=O)N[C@@H](CC(=O)N2CCN(c3ccc(C#Cc4ccc(N5C(=S)N(c6ccc(C#N)c(C(F)(F)F)c6)C(=O)C5(C)C)cc4)cn3)CC2)c2ccc(-c3scnc3C)cc2)C(C)C)on1` has an Activity [1] of 22% and an Activity [2] of 72%.
For `Cc1cc([C@H](C(=O)N2C[C@H](O)C[C@H]2C(=O)N[C@@H](CC(=O)N2CCC(N3CCC(C#Cc4ccc(N5C(=S)N(c6cnc(C#N)c(C(F)(F)F)c6)C(=O)C56CCC6)cc4)CC3)CC2)c2ccc(-c3scnc3C)cc2)C(C)C)on1`, the Activity [1] was 38% and the Activity [2] was 80%.
`Cc1ncsc1-c1ccc(CNC(=O)[C@@H]2C[C@@H](O)CN2C(=O)[C@@H](NC(=O)CCOCCOCCNC(=O)c2ccc(N3C(=S)N(c4ccc(C#N)c(C(F)(F)F)c4)C(=O)C3(C)C)cc2F)C(C)(C)C)cc1` showed an Activity [2] of 32%.
Work on `Cc1ncsc1-c1ccc([C@H](C)NC(=O)[C@@H]2C[C@@H](O)CN2C(=O)[C@@H](NC(=O)CCCCN2CCN(c3ccc(C#Cc4ccc(N5C(=S)N(c6ccc(C#N)c(C(F)(F)F)c6)C(=O)C5(C)C)cc4)cn3)CC2)C(C)(C)C)cc1` yielded an Activity [1] of 28% and an Activity [2] of 48%.
For `Cc1cc([C@H](C(=O)N2C[C@H](O)C[C@H]2C(=O)N[C@@H](CC(=O)NCCCCCCCCCNC(=O)c2ccc(C(=O)N[C@H]3C(C)(C)[C@H](Oc4ccc(C#N)c(Cl)c4)C3(C)C)cc2)c2ccc(-c3scnc3C)cc2)C(C)C)on1`, the Activity [1] was 43% and the Activity [2] was 91%.
`Cc1ncsc1-c1ccc(CNC(=O)[C@@H]2C[C@@H](O)CN2C(=O)[C@@H](NC(=O)CCCNC(=O)c2ccc(N3C(=S)N(c4ccc(C#N)c(C(F)(F)F)c4)C(=O)C3(C)C)cc2F)C(C)(C)C)cc1` gave an Activity [2] of 15%.
For `Cc1cc([C@H](C(=O)N2C[C@H](O)C[C@H]2C(=O)N[C@@H](CC(=O)NCCCCCCCCCNC(=O)c2ccc(N3C(=S)N(c4ccc(C#N)c(C(F)(F)F)c4)C(=O)C3(C)C)cc2F)c2ccc(-c3sncc3C)cc2)C(C)C)on1`, the Activity [1] was 11% and the Activity [2] was 50%.
Work on `Cc1cc([C@H](C(=O)N2C[C@H](O)C[C@H]2C(=O)N[C@@H](CC(=O)N2CCC(N3CCC(C#Cc4ccc(S(=O)(=O)CC(C)(O)C(=O)Nc5ccc(C#N)c(C(F)(F)F)c5)cc4)CC3)CC2)c2ccc(-c3scnc3C)cc2)C(C)C)on1` (stereo partly drawn) yielded an Activity [2] of 18%.
For `Cc1ncsc1-c1ccc([C@@H](CC(=O)N2CCC(N3CCC(C#Cc4ccc(C(=O)N[C@H]5C(C)(C)[C@H](Oc6ccc(C#N)c(Cl)c6)C5(C)C)cc4)CC3)CC2)NC(=O)[C@@H]2C[C@@H](O)CN2C(=O)[C@@H](NC(=O)C2(F)CC2)C(C)(C)C)cc1`, the Activity [2] was under 5%.
With `Cc1cc([C@H](C(=O)N2C[C@H](O)C[C@H]2C(=O)N[C@@H](CC(=O)N2CCC(N3CCC(C#Cc4ccc(N5C(=S)N(c6ccc(C#N)c(C(F)(F)F)c6)C(=O)C5(C)C)cc4)CC3)CC2)c2ccc(-c3scnc3C)cc2)C(C)C)on1` the Activity [1] was 20% and the Activity [2] was 81%.
With `Cc1ncsc1-c1ccc([C@H](CC(=O)N2CCC(N3CCC(C#Cc4ccc(C(=O)N[C@H]5C(C)(C)[C@H](Oc6ccc(C#N)c(Cl)c6)C5(C)C)cc4)CC3)CC2)NC(=O)[C@@H]2C[C@@H](O)CN2C(=O)[C@@H](NC(=O)C2(C#N)CC2)C(C)(C)C)cc1` the Activity [1] was 76% and the Activity [2] was 99%.
Compound `Cc1ncsc1-c1ccc(CNC(=O)[C@@H]2C[C@@H](O)CN2C(=O)[C@@H](NC(=O)CCNC(=O)c2ccc(N3C(=S)N(c4ccc(C#N)c(C(F)(F)F)c4)C(=O)C3(C)C)cc2F)C(C)(C)C)cc1` has an Activity [2] of 26%.
`Cc1ncsc1-c1ccc([C@H](CC(=O)N2CCC(N3CCC(C#Cc4ccc(C(=O)N[C@H]5C(C)(C)[C@H](Oc6ccc(C#N)c(Cl)c6)C5(C)C)cc4)CC3)CC2)NC(=O)[C@@H]2C[C@@H](O)CN2C(=O)[C@H](NC(=O)C2(F)CC2)C(C)(C)C)cc1` gave an Activity [2] of under 5%.
For `Cc1ncsc1-c1ccc([C@H](C)NC(=O)[C@@H]2C[C@@H](O)CN2C(=O)[C@@H](NC(=O)N2CCN(c3ccc(C#Cc4ccc(N5C(=S)N(c6ccc(C#N)c(C(F)(F)F)c6)C(=O)C5(C)C)cc4)cn3)CC2)C(C)(C)C)cc1`, the Activity [2] was 0%.
`Cc1cc([C@H](C(=O)N2C[C@H](O)C[C@H]2C(=O)N[C@@H](CC(=O)N2CCC(N3CCC(C#Cc4ccc(C(=O)N[C@H]5C(C)(C)[C@H](Oc6ccc(C#N)c(Cl)c6)C5(C)C)cc4)CC3)CC2)c2ccc(-c3scnc3C)cc2)C(C)C)on1` was tested, and the Activity [1] was 76% and the Activity [2] was 98%.
`Cc1ncsc1-c1ccc(CNC(=O)[C@@H]2C[C@@H](O)CN2C(=O)[C@@H](NC(=O)CCCCCCCCCNC(=O)c2ccc(N3C(=S)N(c4ccc(C#N)c(C(F)(F)F)c4)C(=O)C3(C)C)cc2F)C(C)(C)C)cc1` showed an Activity [1] of 10% and an Activity [2] of 48%.
`Cc1ncsc1-c1ccc([C@H](C)NC(=O)[C@@H]2C[C@@H](O)CN2C(=O)[C@@H](NC(=O)CCCN2CCN(c3ccc(C#Cc4ccc(N5C(=S)N(c6ccc(C#N)c(C(F)(F)F)c6)C(=O)C5(C)C)cc4)cn3)CC2)C(C)(C)C)cc1` was tested, and the Activity [1] was 37% and the Activity [2] was 61%.
`Cc1ncsc1-c1ccc(CNC(=O)[C@@H]2C[C@@H](O)CN2C(=O)[C@@H](NC(=O)CCCN2CCN(c3ccc(C#Cc4ccc(N5C(=S)N(c6ccc(C#N)c(C(F)(F)F)c6)C(=O)C5(C)C)cc4)cn3)CC2)C(C)(C)C)cc1` showed an Activity [2] of 50%.
With `Cc1ncsc1-c1ccc(CNC(=O)[C@@H]2C[C@@H](O)CN2C(=O)[C@@H](NC(=O)CCCCCCCCCCCNC(=O)c2ccc(N3C(=S)N(c4ccc(C#N)c(C(F)(F)F)c4)C(=O)C3(C)C)cc2F)C(C)(C)C)cc1` the Activity [2] was 30%.
Compound `Cc1ncsc1-c1ccc(CNC(=O)[C@@H]2C[C@@H](O)CN2C(=O)[C@@H](NC(=O)CCCCCCc2ccc(C#Cc3ccc(N4C(=S)N(c5ccc(C#N)c(C(F)(F)F)c5)C(=O)C4(C)C)cc3)cn2)C(C)(C)C)cc1` has an Activity [1] of 30% and an Activity [2] of 63%.
With `CNC(=O)c1ccc(N2C(=S)N(c3ccc(C#N)c(C(F)(F)F)c3)C(=O)C2(C)C)cc1F` [ENZALUTAMIDE] the IC50 (VCaP) was 87.4 nM and the IC50 (LNCaP) was 25 nM.
For `Cc1cc([C@H](C(=O)N2C[C@H](O)C[C@H]2C(=O)N[C@@H](CC(=O)NCCCN2CCN(c3ccc(C#Cc4ccc(N5C(=S)N(c6ccc(C#N)c(C(F)(F)F)c6)C(=O)C5(C)C)cc4)cn3)CC2)c2ccc(-c3sncc3C)cc2)C(C)C)on1`, the Activity [1] was 27% and the Activity [2] was 75%.
With `Cc1ncsc1-c1ccc([C@H](C)NC(=O)[C@@H]2C[C@@H](O)CN2C(=O)[C@@H](NC(=O)CN2CCN(c3ccc(C#Cc4ccc(N5C(=S)N(c6ccc(C#N)c(C(F)(F)F)c6)C(=O)C5(C)C)cc4)cn3)CC2)C(C)(C)C)cc1` the Activity [2] was 3%.
`Cc1ncsc1-c1ccc([C@H](C)NC(=O)[C@@H]2C[C@@H](O)CN2C(=O)[C@@H](NC(=O)CCN2CCN(c3ccc(C#Cc4ccc(N5C(=S)N(c6ccc(C#N)c(C(F)(F)F)c6)C(=O)C5(C)C)cc4)cn3)CC2)C(C)(C)C)cc1` was tested, and the Activity [1] was 34% and the Activity [2] was 51%.

— ChEMBL document CHEMBL5260842 (J Med Chem, 2019)
